# Measured values reported in patent US11034692B1 (Genentech, Inc., priority 2017, dated 2021).
# Target: HPK1
# Assay: HPK1 Lantha Binding Assay ("Lanth")
# Conditions: Table B1-1, read-out: HPK1 Ki (μM) (Lanth)
# Summary of the method: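 TR-FRET tracer displacement with 2 nM GST-tagged kinase, 2 nM Eu-anti-GST antibody and 15 nM Tracer222 at 23 C. Enzyme–antibody preincubated 1 h with compound, then tracer added for 1 h; 340 nm excitation, 615/665 nm emission. Ki from Morrison fit over an 11-point 5-fold dilution.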
row,SMILES,Ki [nM]
1,"Cc1ccncc1-c1cc2cc(Nc3cnn(CC(F)F)c3)ncc2c(N)n1 [Compound 257, 6-N-[1-(2,2-difluoroethyl)-1H-pyrazol-4-yl]-3-(4-methylpyridin-3-yl)-2,7-naphthyridine-1,6-diamine]",1.01
2,"Cc1ccncc1-c1nc(N)c2cnc(NC(=O)C3CC3)cc2c1-c1cn[nH]c1 [Compound 258, N-(8-amino-6-(4-methylpyridin-3-yl)-5-(1H-pyrazol-4-yl)-2,7-naphthyridin-3-yl)cyclopropanecarboxamide]",0.695
3,"Cc1ccncc1-c1cc2cc(Nc3cc(C4CC4)n(CCO)n3)ncc2c(N)n1 [Compound 259, 2-(3-[[8-amino-6-(4-methylpyridin-3-yl)-2,7-naphthyridin-3-yl]amino]-5-cyclopropyl-1H-pyrazol-1-yl)ethan-1-ol]",146
4,"Cc1ccncc1-c1cc2cc(Nc3cnn(CC(C)(C)O)c3)ncc2c(N)n1 [Compound 260, 1-(4-[[8-amino-6-(4-methylpyridin-3-yl)-2,7-naphthyridin-3-yl]amino]-1H-pyrazol-1-yl)-2-methylpropan-2-ol]",0.73
5,"Cc1cc(Nc2cc3cc(-c4cnccc4C)nc(N)c3cn2)n(CCO)n1 [Compound 261, 2-(5-[[8-amino-6-(4-methylpyridin-3-yl)-2,7-naphthyridin-3-yl]amino]-3-methyl-1H-pyrazol-1-yl)ethan-1-ol]",36.7
6,"CNC(=O)c1cc(Nc2cc3cc(-c4cnccc4C)nc(N)c3cn2)nn1C [Compound 263, 3-[[8-Amino-6-(4-methylpyridin-3-yl)-2,7-naphthyridin-3-yl]amino]-N,1-dimethyl-1H-pyrazole-5-carboxamide]",0.021
7,"Cc1ccncc1-c1cc2cc(Nc3ccc(CS(N)(=O)=O)cc3)ncc2c(N)n1 [Compound 264, (4-[[8-Amino-6-(4-methylpyridin-3-yl)-2,7-naphthyridin-3-yl]amino]phenyl)methanesulfonamide]",0.134
8,"Cc1ccncc1-c1cc2cc(Nc3ccc(N4CCNCC4=O)cc3)ncc2c(N)n1 [Compound 265, 1-(4-[[8-amino-6-(4-methylpyridin-3-yl)-2,7-naphthyridin-3-yl]amino]phenyl)piperazin-2-one]",0.249
9,"Cc1ccncc1-c1cc2cc(Nc3cnn(C(C)(C)CO)c3)ncc2c(N)n1 [Compound 266, 2-(4-[[8-amino-6-(4-methylpyridin-3-yl)-2,7-naphthyridin-3-yl]amino]-1H-pyrazol-1-yl)-2-methylpropan-1-ol]",0.118
10,"Cc1ccncc1-c1nc(N)c2cnc(NC(=O)[C@@H]3C[C@H]3CC#N)cc2c1Cl [Compound 269, (1R,2S)—N-[8-amino-5-chloro-6-(4-methylpyridin-3-yl)-2,7-naphthyridin-3-yl]-2-(cyanomethyl)cyclopropane-1-carboxamide]",2.3
11,"Cc1ccncc1-c1nc(N)c2cnc(NC(=O)[C@H]3C[C@@H]3CC#N)cc2c1Cl [Compound 270, (1S,2R)—N-[8-amino-5-chloro-6-(4-methylpyridin-3-yl)-2,7-naphthyridin-3-yl]-2-(cyanomethyl)cyclopropane-1-carboxamide]",0.116
12,"CCc1c(-c2cnccc2C)nc(N)c2cnc(NC(=O)[C@@H]3C[C@H]3CC#N)cc12 [Compound 272, (1R,2S)—N-[8-amino-5-ethyl-6-(4-methylpyridin-3-yl)-2,7-naphthyridin-3-yl]-2-(cyanomethyl)cyclopropane-1-carboxamide]",0.139
13,"Cc1ccncc1-c1cc2cc(Nc3cnn([C@@H](C)C#N)c3)ncc2c(N)n1 [Compound 274, (S)-2-(4-(8-amino-6-(4-methylpyridin-3-yl)-2,7-naphthyridin-3-ylamino)-1H-pyrazol-1-yl)propanenitrile]",0.297
14,"Cc1ccc(O)cc1-c1cc2cc(NC(=O)[C@H]3C[C@@H]3c3cnn(C)c3)ncc2c(N)n1 [Compound 286, (1S,2S)—N-[8-amino-6-(5-hydroxy-2-methylphenyl)-2,7-naphthyridin-3-yl]-2-(1-methyl-1H-pyrazol-4-yl)cyclopropane-1-carboxamide]",1.82
15,"Cc1ccc(O)cc1-c1cc2cc(NC(=O)[C@@H]3C[C@H]3c3cnn(C)c3)ncc2c(N)n1 [Compound 287, (1R,2R)—N-[8-amino-6-(5-hydroxy-2-methylphenyl)-2,7-naphthyridin-3-yl]-2-(1-methyl-1H-pyrazol-4-yl)cyclopropane-1-carboxamide]",0.078
16,"COc1ccc(C)c(-c2cc3cc(NC(=O)[C@H]4C[C@@H]4c4cnn(C)c4)ncc3c(N)n2)c1 [Compound 288, (1S,2S)—N-[8-amino-6-(5-methoxy-2-methylphenyl)-2,7-naphthyridin-3-yl]-2-(1-methyl-1H-pyrazol-4-yl)cyclopropane-1-carboxamide]",6.19

row,SMILES,Ki [nM]
1,"COc1ccc(C)c(-c2cc3cc(NC(=O)C4C[C@H]4c4cnn(C)c4)ncc3c(N)n2)c1 (stereo partly drawn) [Compound 289, (1R,2R)—N-[8-amino-6-(5-methoxy-2-methylphenyl)-2,7-naphthyridin-3-yl]-2-(1-methyl-H-pyrazol-4-yl)cyclopropane-1-carboxamide]",7.39
2,"Cc1ccc(C(=O)N(C)C)cc1-c1cc2cc(NC(=O)[C@H]3C[C@@H]3c3cnn(C)c3)ncc2c(N)n1 [Compound 290, 3-(1-amino-6-[[(1S,2S)-2-(1-methyl-1H-pyrazol-4-yl)cyclopropane]amido]-2,7-naphthyridin-3-yl)-N,N,4-trimethylbenzamide]",3.36
3,"Cc1ccc(C(=O)N(C)C)cc1-c1cc2cc(NC(=O)[C@@H]3C[C@H]3c3cnn(C)c3)ncc2c(N)n1 [Compound 291, 3-(1-amino-6-[[(1R,2R)-2-(1-methyl-1H-pyrazol-4-yl)cyclopropane]amido]-2,7-naphthyridin-3-yl)-N,N,4-trimethylbenzamide]",63.8
4,"Cc1ccncc1-c1cc2cc(NC(=O)[C@H]3C[C@@H]3c3cnn(CCOCCN)c3)ncc2c(N)n1 [Compound 292, (1S,2S)—N-[8-amino-6-(4-methylpyridin-3-yl)-2,7-naphthyridin-3-yl]-2-[1-[2-(2-aminoethoxy)ethyl]-1H-pyrazol-4-yl]cyclopropane-1-carboxamide]",0.0417
5,"Cc1ccncc1-c1cc2cc(NC(=O)[C@@H]3C[C@H]3c3cnn(CCOCCN)c3)ncc2c(N)n1 [Compound 293, (1R,2R)—N-[8-amino-6-(4-methylpyridin-3-yl)-2,7-naphthyridin-3-yl]-2-[1-[2-(2-aminoethoxy)ethyl]-1H-pyrazol-4-yl]cyclopropane-1-carboxamide]",0.668
6,"NCCOCCn1cc([C@H]2C[C@@H]2C(=O)Nc2cc3cc(-c4c(Cl)cccc4Cl)nc(N)c3cn2)cn1 [Compound 295, (1S,2S)—N-[8-amino-6-(2,6-dichlorophenyl)-2,7-naphthyridin-3-yl]-2-[1-[2-(2-aminoethoxy)ethyl]-1H-pyrazol-4-yl]cyclopropane-1-carboxamide]",0.287
7,"NCCOCCn1cc([C@@H]2C[C@H]2C(=O)Nc2cc3cc(-c4c(Cl)cccc4Cl)nc(N)c3cn2)cn1 [Compound 296, (1R,2R)—N-[8-amino-6-(2,6-dichlorophenyl)-2,7-naphthyridin-3-yl]-2-[1-[2-(2-aminoethoxy)ethyl]-1H-pyrazol-4-yl]cyclopropane-1-carboxamide]",0.026
8,"Cc1ccccc1-c1cc2cc(NC(=O)[C@@H]3C[C@H]3c3cnn(C)c3)ncc2c(N)n1 [Compound 298, (1R,2R)—N-[8-amino-6-(2-methylphenyl)-2,7-naphthyridin-3-yl]-2-(1-methyl-1H-pyrazol-4-yl)cyclopropane-1-carboxamide]",0.932
9,"Cc1ccccc1-c1cc2cc(NC(=O)[C@H]3C[C@@H]3c3cnn(C)c3)ncc2c(N)n1 [Compound 299, (1S,2S)—N-[8-amino-6-(2-methylphenyl)-2,7-naphthyridin-3-yl]-2-(1-methyl-1H-pyrazol-4-yl)cyclopropane-1-carboxamide]",0.0359
10,"Cc1ccc(C#N)cc1-c1cc2cc(NC(=O)[C@@H]3C[C@H]3c3cnn(C)c3)ncc2c(N)n1 [Compound 300, (1R,2R)—N-[8-amino-6-(5-cyano-2-methylphenyl)-2,7-naphthyridin-3-yl]-2-(1-methyl-1H-pyrazol-4-yl)cyclopropane-1-carboxamide]",1.36
11,"Cc1ccc(C#N)cc1-c1cc2cc(NC(=O)[C@H]3C[C@@H]3c3cnn(C)c3)ncc2c(N)n1 [Compound 301, (1S,2S)—N-[8-amino-6-(5-cyano-2-methylphenyl)-2,7-naphthyridin-3-yl]-2-(1-methyl-1H-pyrazol-4-yl)cyclopropane-1-carboxamide]",0.0692
12,"Cn1cc([C@@H]2C[C@H]2C(=O)Nc2cc3cc(-c4c(F)cccc4Cl)nc(N)c3cn2)cn1 [Compound 302, (1R,2R)—N-(8-amino-6-(2-chloro-6-fluorophenyl)-2,7-naphthyridin-3-yl)-2-(1-methyl-1H-pyrazol-4-yl)cyclopropanecarboxamide]",0.65
13,"Cn1cc([C@H]2C[C@@H]2C(=O)Nc2cc3cc(-c4c(F)cccc4Cl)nc(N)c3cn2)cn1 [Compound 303, (1S,2S)—N-(8-amino-6-(2-chloro-6-fluorophenyl)-2,7-naphthyridin-3-yl)-2-(1-methyl-H-pyrazol-4-yl)cyclopropanecarboxamide]",0.027
14,"Cn1cc([C@H]2C[C@@H]2C(=O)Nc2cc3cc(-c4ccccc4Cl)nc(N)c3cn2)cn1 [Compound 305, (1R,2R)—N-[8-amino-6-(2-chlorophenyl)-2,7-naphthyridin-3-yl]-2-(1-methyl-H-pyrazol-4-yl)cyclopropane-1-carboxamide]",0.152
15,"Cc1cc(-c2ncco2)ncc1-c1cc2cc(NC(=O)[C@H]3C[C@@H]3c3cnn(C)c3)ncc2c(N)n1 [Compound 308, (1S,2S)—N-[8-amino-6-[4-methyl-6-(1,3-oxazol-2-yl)pyridin-3-yl]-2,7-naphthyridin-3-yl]-2-(1-methyl-1H-pyrazol-4-yl)cyclopropane-1-carboxamide]",3.04
16,"Cc1cc(-c2ncco2)ncc1-c1cc2cc(NC(=O)[C@@H]3C[C@H]3c3cnn(C)c3)ncc2c(N)n1 [Compound 309, (1R,2R)—N-[8-amino-6-[4-methyl-6-(1,3-oxazol-2-yl)pyridin-3-yl]-2,7-naphthyridin-3-yl]-2-(1-methyl-1H-pyrazol-4-yl)cyclopropane-1-carboxamide]",0.184
